We go through one molecule from patent publication US20090143236A1, “Method of detecting cancer cell acquiring drug-resistance” (BML, INC., priority 2004, published 2009).

The test system of this assay is SKOV3 cells and SKOV3/VP cells. Description: Caspase activity (colorimetric CaspACE assay) of ovarian cancer cells treated with VP-16. Particulars: 100 μg/ml VP-16, 24 hours; FIG. 4A. It is filed as cell-based, Human. As to the method:
Caspase activity was measured using a calorimetric CaspACE assay system (Promega Co., Madison, Wis., U.S.A.) in accordance with the instructions included therewith. SKOV3 cells and SKOV3/VP cells were cultured for 24 hours in the presence of 100 μg/ml VP-16, or VP-16 and the caspase inhibitor Z-VAD-FMK, or in the presence of only a medium (control). The cells were dissolved in a lysis buffer, and the resultant was then subjected to centrifugation at 4° C. at 15,000×g for 20 minutes. The supernatant (containing 100 μg of protein) was incubated with a substrate (Ac-DEVD-pNA) used for the measurement of caspase activity at 37° C. for 4 hours. Thereafter, the absorbance at 405 nm was measured, so as to obtain the activity.
The influence of BCL2L2 gene expression on apoptosis induced by anticancer drugs was analyzed. Human ovarian cancer SKOV3 cells and etoposide-resistant ovarian cancer SKOV3/VP cells were cultured for 24 hours in the presence of 100 μg/ml VP-16, so as to measure apoptosis associated with activation of caspase-3. […] Thereafter, in order to analyze the role of the BCL2L2 gene, the cells were treated with the antisense oligonucleotide of BCL2L2, and the influence of VP-16 was analyzed under conditions wherein expression of the BCL2L2 gene was suppressed. […]

On to `COc1cc([C@@H]2c3cc4c(cc3[C@@H](O[C@@H]3O[C@@H]5CO[C@@H](C)O[C@H]5[C@H](O)[C@H]3O)[C@H]3COC(=O)[C@H]23)OCO4)cc(OC)c1O` [VP-16, etoposide], for which the “caspase activity in etoposide-resistant SKOV3/VP cells compared with parent line SKOV3” value is given as “decreased to approximately one-half”.
